Legend:
[1] = Adverse events on nivolumab second-line therapy for metastatic pulmonary adenocarcinoma; assay type: in vivo, human; conditions: after 2 treatments with nivolumab (4 weeks after treatment initiation)
Description: Myositis was suspected due to increased creatine kinase levels and confirmed by muscle biopsy. Myocarditis was confirmed with troponin increase, premature ventricular contractions and deterioration of left-ventricular ejection fraction with no signs of acute coronary syndrome on angiogram.

[2] = Eleven ICI patients with irAE treated with ruxolitinib in combination with corticosteroids and abatacept
[3] = human, in vivo; cited from earlier work

For “nivolumab: PD-1 inhibitor: IgG4 PD1 antibody”, the adverse events developed [1] was “developed myalgia, diplopia and bilateral ptosis”.
For `N#CC[C@H](C1CCCC1)n1cc(-c2ncnc3[nH]ccc23)cn1` [Ruxolitinib, (3R)-3-Cyclopentyl-3-[4-(7H-pyrrolo[2,3-d]pyrimidin-4-yl)pyrazol-1-yl]propanenitrile], the “effect on tumor progression” value (human, in vivo) was “no effect”, the tumor progression (human, in vivo) was “no evidence of tumor progression” and the relief of myotoxicity (oral ruxolitinib, summary of the case) was “symptomatic relief”. The oculomotor disorders (person, ruxolitinib 15 mg twice daily) was “improvement”, the troponin (person, ruxolitinib 15 mg twice daily, corticosteroids tapered) was “prompt decrease” and the myotoxicity outcome (ruxolitinib continued for 1 month at 15 mg twice daily) was “complete resolution”. For the same molecule, the “deaths not related to irAE (hemorrhagic choc n=1; COVID19 n=2)” value ([2]; first 3 months follow-up, 11 patients) was “three”, the “evolution of concurrent irAE” value ([2]; first 3 months follow-up, 11 patients, myasthenia like symptoms, hepatitis, thyroiditis) was “evolved favorably” and the “death related to an irAE” value ([2]; human, in vivo) was “no death”.
In the case of abatacept, the “effect in patients with myotoxicity” value [3] is given as “positive effect”.

— patent US12697335B2, “Method for treating immune toxicities induced by immune checkpoint inhibitors” (ASSISTANCE PUBLIQUE—HÔPITAUX DE PARIS, priority 2020, dated 2026)
